Legend:
[1] = tested on: primary hemostasis; test: Determination of the prolongation of bleeding time in conscious mice; assay type: in vivo; details: Mus musculus, 1 h, 10 mg/kg oral, one hour, as compared to a control group, read-out: Prolongation of Bleeding Time after One Hour (%)
Procedure: Since, in the event of injury, the first rapid cessation of bleeding is effected by the adhesion and aggregation of the thrombocytes at the vessel wall, the functioning of the thrombocytes can easily be determined by measuring the bleeding time with a standardized injury. The normal bleeding time in humans is between 1 and 3 minutes, assuming that there are sufficient intact, effective thrombocytes. If the number of thrombocytes is normal and the bleeding time is prolonged, this signifies an abnormality in the thrombocytes. This is found in some inborn errors of thrombocyte function. If, on the other hand, it is desired to prevent spontaneous aggregation of the thrombocytes and occlusion in the arterial system by drugs, successful therapy affecting the thrombocytes should prolong the bleeding time. Therefore, with use of an antithrombotic substance, a prolongation of the bleeding time is expected. Also, there should be a normal coagulation time since the plasma coagulation system is not affected.
To measure the bleeding time, 10 mg/kg of the test compounds were administered orally to conscious mice. After one hour, 0.5 mm of the tip of the tail of each mouse was cut off, and droplets of blood were gently removed with filter paper every 30 seconds. The number of drops of blood thus obtained gives a bleeding time (5 animals per experiment).
The results in the following table represent the prolongation of the bleeding time in percent as compared to a control group.

[2] = tested on: thrombocyte aggregation; test: Antithrombotic activity: collagen-induced thrombocyte aggregation in platelet-rich plasma (Born and Cross); assay type: cell-based; details: Homo sapiens, 50% change in optical density, ten minutes at 37° C.
Procedure: The thrombocyte aggregation is determined in platelet-rich plasma from healthy test subjects using the method of Born and Cross [J. Physiol. 170, 397 (1964)]. To inhibit coagulation, the blood is mixed with 3.14 percent of sodium citrate in a volume ratio of 1:10.
The pattern of the decrease in optical density of the platelet suspension after administration of the aggregation-initiating substance is measured photometrically and recorded. The speed of aggregation is deduced from the angle of inclination of the density curve. The point of the curve where there is the most light transmittance is used to calculate the optical density.
The quantity of collagen used is as small as possible, but sufficient to produce an irreversible reaction curve. The standard commercial collagen made by Hormonchemie of Munich is used. Before the collagen is administered, the plasma is incubated with the substance for ten minutes at 37° C.
From the measurements obtained, and EC50 is obtained graphically, relating to a 50% change in optical density by way of an inhibition of aggregation.

[3] = tested on: phosphodiesterase (PDE) from human blood platelets; test: PDE inhibition (phosphodiesterase from human blood platelets, 3H-cAMP hydrolysis); assay type: biochemical; details: human platelet PDE, 1 μmol/liter 3H-cAMP, pH 7.4, 15 minutes at 37° C.
Procedure: cAMP is hydrolyzed to AMP by phosphodiesterase (PDE) from various sources, including blood platelets.
The phosphodiesterase used was prepared by centrifugal extraction at 10,000 g from human blood platelets which were frozen in water and then thawed.
A quantity of 0.3 ml of a mixture containing 0.1 mol/liter of […] (pH 7.4), 3 mmols/liter of magnesium chloride, 1 mmol/liter of AMP, 1 μmol/liter of ^3 H-cAMP (specific activity about 10 MBq/μmol), PDE, and the inhibitor under investigation (water in the case of the control) was incubated for 15 minutes at 37° C. […] From a comparison of the results for inhibitor and control cases, the concentration of the respective inhibitor necessary for a 50% inhibiting effect (IC50) was calculated.

[4] = tested on: mice; test: Acute toxicity after oral administration of a single dose; assay type: in vivo; details: observation period 14 days; for Approximate Acute Toxicity: groups of ten, single oral dose; for animals died: single oral dose 1000 mg
Procedure: The acute toxicity of the test compounds was determined, as a guide, in groups of ten mice, after oral administration of a single dose (observation period: 14 days): […]

Compound	change in vivo at 10 mg/kg [1]	EC50 [2]	IC50 [3]	Approximate Acute Toxicity [4]	animals died [4]
Cc1ccc(S(=N)(=O)CCCCOc2ccc3c(c2)C(C)(C)OC(=O)N3)cc1 (centres unmarked) [N, 6-[4-(4-methyl-phenylsulfoximino)-butoxy]-4,4-dimethyl-4H-3,1-benzoxazin-2-one]	63%	220 nM	65 nM	–	–
CC1(C)OC(=O)Nc2ccc(OCCCCS(=N)(=O)c3ccc(Cl)c(Cl)c3)cc21 (centres unmarked) [F, 6-[4-(3,4-dichloro-phenylsulfoximino)-butoxy]-4,4-dimethyl-4H-3,1-benzoxazin-2-one]	> 275%	210 nM	42 nM	–	–
CC1(C)OC(=O)Nc2cc(Br)c(OCCCC[S+]([O-])c3ccc(Cl)c(Cl)c3)cc21 (centres unmarked) [V, 7-bromo-6-[4-(3,4-dichloro-phenylsulfinyl)-butoxy]-4,4-dimethyl-4H-3,1-benzoxazin-2-one]	100%	44 nM	3.8 nM	1000 mg	0 out of 10 animals died
CC1(C)OC(=O)Nc2ccc(OCCCCS(=N)(=O)c3ccc(-c4ccccc4)cc3)cc21 (centres unmarked) [Q, 6-[4-(4-biphenylyl-sulfoximino)-butoxy]-4,4-dimethyl-4H-3,1-benzoxazin-2-one]	128%	250 nM	6.8 nM	–	–
CC1(C)OC(=O)Nc2ccc(OCCCC[S+]([O-])c3ccc(Cl)cc3)cc21 (centres unmarked) [Compound A, 6-[4-(4-chloro-phenylsulfinyl)-butoxyl]-4,4-dimethyl-4H-3,1-benzoxazin-2-one]	> 248%	340 nM	240 nM	1000 mg	0 out of 10 animals died
CC1(C)OC(=O)Nc2ccc(OCCCCS(=N)(=O)c3ccc(O)cc3)cc21 (centres unmarked) [B, 6-[4-(4-hydroxy-phenylsulfoximino)-butoxy]-4,4-dimethyl-4H-3,1-benzoxazin-2-one]	> 263%	280 nM	230 nM	1000 mg	0 out of 10 animals died
COc1cccc(S(=N)(=O)CCCCOc2ccc3c(c2)C(C)(C)OC(=O)N3)c1 (centres unmarked) [G]	> 245%	270 nM	77 nM	–	–
Cc1ccc([S+]([O-])CCCCOc2ccc3c(c2)C(C)(C)OC(=O)N3)cc1 (centres unmarked) [D, 6-[4-(4-methyl-phenylsulfinyl)-butoxy]-4,4-dimethyl-4H-3,1-benzoxazin-2-one]	> 250%	330 nM	210 nM	1000 mg	0 out of 10 animals died
CC1(C)OC(=O)Nc2ccc(OCCCCS(=N)(=O)c3ccc(F)cc3)cc21 (centres unmarked) [H, 6-[4-(4-fluoro-phenylsulfoximino)-butoxy]-4,4-dimethyl-4H-3,1-benzoxazin-2-one]	> 211%	320 nM	180 nM	–	–
Cc1ccc([S+]([O-])CCCCOc2cc3c(cc2Cl)NC(=O)OC3(C)C)cc1 (centres unmarked) [U, 7-chloro-4,4-dimethyl-6-[4-(4-methyl-phenylsulfinyl)-butoxy]-4H-3,1-benzoxazin-2-one]	> 230%	28 nM	3.4 nM	1000 mg	0 out of 10 animals died
COc1ccc(S(=N)(=O)CCCCOc2ccc3c(c2)C(C)(C)OC(=O)N3)cc1 (centres unmarked) [C, 6-[4-(4-methoxy-phenylsulfoximino)-butoxy]-4,4-dimethyl-4H-3,1-benzoxazin-2-one]	> 241%	270 nM	130 nM	1000 mg	0 out of 10 animals died
CC(=O)N=S(=O)(CCCCOc1ccc2c(c1)C(C)(C)OC(=O)N2)c1cc(C(C)(C)C)c(O)c(C(C)(C)C)c1 (centres unmarked) [S, 6-[4-(3,5-di-tert.butyl-4-hydroxy-N-acetyl-phenylsulfoximino)-butoxy]-4,4-dimethyl-4H-3,1-benzoxazin-2-one]	> 226%	2200 nM	77 nM	1000 mg	0 out of 10 animals died
Cc1cc(S(=N)(=O)CCCCOc2ccc3c(c2)C(C)(C)OC(=O)N3)ccc1Br (centres unmarked) [M, 6-[4-(4-bromo-3-methyl-phenylsulfoximino)-butoxy]-4,4-dimethyl-4H-3,1-benzoxazin-2-one]	100%	250 nM	66 nM	–	–
COc1ccc(S(=O)(CCCCOc2ccc3c(c2)C(C)(C)OC(=O)N3)=NC(C)=O)cc1OC (centres unmarked) [R, 6-[4-(3,4-dimethoxy-N-acetyl-phenylsulfoximino)-butoxy]-4,4-dimethyl-4H-3,1-benzoxazin-2-one]	> 241%	2300 nM	710 nM	1000 mg	0 out of 10 animals died
CC1(C)OC(=O)Nc2ccc(OCCCCS(=N)(=O)c3ccc(Br)cc3)cc21 (centres unmarked) [Compound I, 6-[4-(4-bromo-phenylsulfoximino)-butoxy]-4,4-dimethyl-4H-3,1-benzoxazin-2-one]	> 220%	330 nM	110 nM	–	–
CC1(C)OC(=O)Nc2ccc(OCCCC[S+]([O-])c3cc(Br)c(N)c(Br)c3)cc21 (centres unmarked) [P, 6-[4-(4-amino-3,5-dibromo-phenylsulfinyl)-butoxy]-4,4-dimethyl-4H-3,1-benzoxazin-2-one]	73%	550 nM	56 nM	–	–
CC1(C)OC(=O)Nc2ccc(OCCCC[S+]([O-])c3ccc(C4CCCCC4)cc3)cc21 (centres unmarked) [E, 6-[4-(4-cyclohexyl-phenylsulfinyl)-butoxy]-4,4-dimethyl-4H-3,1-benzoxazin-2-one]	46%	320 nM	78 nM	1000 mg	0 out of 10 animals died
Cc1ccc(S(=N)(=O)CCCCOc2cc3c(cc2Br)NC(=O)OC3(C)C)cc1 (centres unmarked) [T, 7-bromo-4,4-dimethyl-6-[4-(4-methyl-phenylsulfoximino)-butoxy]-4H-3,1-benzoxazin-2-one]	60%	69 nM	1 nM	1000 mg	0 out of 10 animals died
COc1ccc(S(=N)(=O)CCCCOc2ccc3c(c2)C(C)(C)OC(=O)N3)cc1OC (centres unmarked) [O, 6-[4-(3,4-dimethoxy-phenylsulfoximino)-butoxy]-4,4-dimethyl-4H-3,1-benzoxazin-2-one]	> 227%	270 nM	200 nM	–	–
CC1(C)OC(=O)Nc2ccc(OCCCC[S+]([O-])c3ccc(Br)cc3)cc21 (centres unmarked) [L, 6-[4-(4-bromo-phenylsulfinyl)-butoxy]-4,4-dimethyl-4H-3,1-benzoxazin-2-one]	> 266%	420 nM	240 nM	–	–
O=C1Nc2ccc(OCCCC[S+]([O-])c3ccccc3)cc2CO1 (centres unmarked) [K, 6-(4-phenylsulfinyl-butoxy)-4H-3,1-benzoxazin-2-one]	121%	1900 nM	1500 nM	–	–
